The text below walks through data of PMC9544171, “Glucose‐dependent insulinotropic polypeptide receptor antagonist treatment causes a reduction in weight gain in ovariectomised high fat diet‐fed mice” (British Journal of Pharmacology, 2022).

Data set [1] can be described thus: Pharmacokinetic analysis after s.c. administration, plasma radioimmunoassay. In kind it is in vivo. The following applies: sc, female C57Bl/6 mice, single s.c. 300 nmol·kg−1 (6 nmol per mouse), in‐house radioimmunoassay. How it is done:
To assess mGIPAnt‐1 half‐life following subcutaneous (s.c.) administration, mice (n = 6) received a single s.c. administration of 300‐nmol·kg^−1 mGIPAnt‐1. Retro‐orbital blood samples (50 μl) were taken using EDTA coated glass capillaries at (1) t = 0, 0.5, 1, 1.5, 2 and 2.5 h, (2) t = 2.5, 3, 4, 6, 8 and 22 h, or (3) t = 22, 24, 26, 28, 30 and 32 h and immediately added to Eppendorf tubes (Eppendorf, Hamburg, Germany) and centrifuged at 3500g, 20 min, 4°C. Plasma was transferred into Eppendorf tubes on dry ice and stored at −20°C for analysis.
mGIPAnt‐1 levels were measured by an in‐house radioimmunoassay using a polyclonal antibody recognizing a mid‐regional part of GIP (code no. 95234) (Gasbjerg et al., [2017]). mGIPAnt‐1 was used as standard and the assay buffer was a 80‐mM phosphate buffer pH 7.5, containing (in final concentrations) 0.1% HSA, 10‐mM EDTA, 500‐KIU ml^−1 aprotinin and 0.01‐mM valine pyrrolidide. Samples were carefully diluted to ensure that samples would fall within the measurable range of the assay. […]
Results are presented as mean ± SE. Data were analysed with one‐way and two‐way analysis of variance (ANOVA) with Tukey's or Sidak multiple comparisons test and Student's unpaired t tests where appropriate. […] For the in vitro data IC50 values were determined by nonlinear regression using GraphPad Prism 9 (San Diego, California, USA). […]

In data set [2] the test system is Female ovariectomised C57Bl6/J mice. Put plainly: Oral glucose tolerance test after 7 weeks of treatment. The format is in vivo, mouse. As for the experimental part: After 7 weeks HFD and mGIPAnt‐1 treatment, an oral glucose tolerance test was performed. Animals were fasted from 08:00 AM to 11:00 AM and received 2‐g·kg^−1 glucose through oral gavage. Blood glucose was measured in the tail vein samples using a hand‐held glucometer (Accu‐Chek Mobile, Roche) at t = 0, 15, 30, 45, 60, 120 and 180 min. Retro‐orbital blood samples (75 μl) were taken using EDTA coated glass capillaries at t = 0, 15, 30 and 60 min and centrifuged at 3500g, 20 min, 4°C. Plasma was transferred into Eppendorf tubes on dry ice and stored at −20°C for later analysis of insulin measurements.
Insulin levels in intraperitoneal glucose tolerance test and oral glucose tolerance test plasma samples were measured using a mouse insulin ELISA (catalogue no. 10‐1247‐10; Mercodia AB, Uppsala, Sweden). Adiponectin levels in terminal plasma samples were measured using a mouse adiponectin ELISA kit (catalogue no. 80569, Crystal Chem, Elk Grove Village, IL, USA). Adiponectin samples were carefully diluted in kit‐specific assay buffer. The manufacturer's instructions were followed closely.

Where a SMILES comes first, the peptide text is derived from it. The star is where a group is joined. C16 diacid = O=C(O)CCCCCCCCCCCCCCC(=O)*

For orientation: half-life means the time in which the quantity being followed falls by half. Regarding `CC[C@H](C)[C@H](NC(=O)[C@H](CO)NC(=O)[C@H](Cc1ccc(O)cc1)NC(=O)[C@H](CC(=O)O)NC(=O)[C@H](CO)NC(=O)[C@@H](NC(=O)[C@H](Cc1ccccc1)NC(=O)[C@@H](NC(=O)CNC(=O)[C@@H](N)CCC(=O)O)[C@@H](C)O)[C@@H](C)CC)C(=O)N[C@@H](C)C(=O)N[C@@H](CCSC)C(=O)N[C@@H](CC(=O)O)C(=O)N[C@@H](CCCCN)C(=O)N[C@H](C(=O)N[C@@H](CCCCNC(=O)CCCCCCCCCCCCCCC(=O)O)C(=O)N[C@@H](CCC(N)=O)C(=O)N[C@@H](CCC(N)=O)C(=O)N[C@@H](CC(=O)O)C(=O)N[C@@H](Cc1ccccc1)C(=O)N[C@H](C(=O)N[C@@H](CC(N)=O)C(=O)N[C@@H](Cc1c[nH]c2ccccc12)C(=O)N[C@@H](CC(C)C)C(=O)N[C@@H](CC(C)C)C(=O)N[C@@H](C)C(=O)N[C@@H](CCC(N)=O)C(=O)N[C@@H](CCCCN)C(=O)NCC(=O)N[C@@H](CCCCN)C(=O)N[C@@H](CCCCN)C(=O)N[C@@H](CC(N)=O)C(=O)N[C@@H](CC(=O)O)C(=O)N[C@@H](Cc1c[nH]c2ccccc12)C(=O)N[C@@H](CCCCN)C(=O)N[C@@H](Cc1c[nH]cn1)C(=O)N[C@@H](CC(N)=O)C(=O)O)C(C)C)[C@@H](C)CC` [mGIPAnt‐1] (H-EGTFISDYSIAMDKIK(C16 diacid)QQDFVNWLLAQKGKKNDWKHN-OH), in data set [1] (calculated between t = 1.5 h and 32 h, n = 6), the half-life is about 7.2 h. For the same compound, in data set [1] (n = 6, read-out: time of peak plasma concentration), the Tmax came to 1.5 h. In data set [2] (7 weeks of 300 nmol·kg−1 s.c. daily, 2 g·kg−1 oral glucose), the “glucose curve and iAUC, OGTT” value is listed as “did not affect”. For the same compound, the “insulin curve and iAUC, OGTT” value in data set [2] (7 weeks of 300 nmol·kg−1 s.c. daily, 2 g·kg−1 oral glucose, ELISA) is given as “did not affect”. Also, in data set [2] (7 weeks of treatment), the fasting insulin levels result was “not affected”. In addition, the “fasting glucose levels, HFD” value in data set [2] (7 weeks of treatment, versus Vehicle/HFD) is reported as “significantly decreased”.
